Source: patent publication US7749996B2, “Heterotricyclic metalloprotease inhibitors” (Alantos Pharmaceutical Holdings, Inc., priority 2006, dated 2010)

Tests used:
Type in all cases: biochemical
[1] = target: T1, catalytic domain of MMP-3 enzyme (Homo sapiens, UniProt P08254); experiment: Assay for determining MMP-3 inhibition (NFF-3 fluorescent substrate); details: Table 3, activity group
T1 construct: stock solution of the catalytic domain of MMP-3 enzyme (Biomol, Cat. No. SE-109); purchased Biomol SE-109
Method: (§1) The typical assay for MMP-3 activity is carried out in assay buffer comprised of 50 mM MES, pH 6.0, 10 mM CaCl2 and 0.05% Brij-35. Different concentrations of tested compounds are prepared in assay buffer in 50 μL aliquots. […] The mixture of enzyme and compound in assay buffer is thoroughly mixed and incubated for 10 min at room temperature. […] The time-dependent increase in fluorescence is measured at the 330 nm excitation and 390 nm emission by an automatic plate multireader. The IC50 values are calculated from the initial reaction rates.

[2] = target: T2, activated MMP-8 enzyme (Homo sapiens, UniProt P22894); experiment: Assay for determining MMP-8 inhibition (fluorescent substrate); details: Table 2, activity group
T2 construct: purchased Calbiochem 444229
Method: as §1, with “MMP-8” for “MMP-3”, “Tris,” for “MES,”, “7.5, 150 mM NaCl, 5” for “6.0, 10”, “37° C.” for “room temperature.”, “320” for “330”, “multireader at 37° C.” for “multireader.”

[3] = target: T3, catalytic domain of MMP-13 enzyme (Homo sapiens, UniProt P45452); experiment: Assay for determining MMP-13 inhibition (fluorescent substrate); details: Table 1, activity group
T3 construct: stock solution of catalytic domain of MMP-13 enzyme (produced by Alantos or commercially available from Invitek (Berlin), Cat.# 30100812); purchased Invitek (Berlin) 30100812
Method: as §1, with “MMP-13” for “MMP-3”, “Tris,” for “MES,”, “7.5, 150 mM NaCl, 5” for “6.0, 10”, “320” for “330”, “by” for “by an”

T2 sequence (P22894 101-467): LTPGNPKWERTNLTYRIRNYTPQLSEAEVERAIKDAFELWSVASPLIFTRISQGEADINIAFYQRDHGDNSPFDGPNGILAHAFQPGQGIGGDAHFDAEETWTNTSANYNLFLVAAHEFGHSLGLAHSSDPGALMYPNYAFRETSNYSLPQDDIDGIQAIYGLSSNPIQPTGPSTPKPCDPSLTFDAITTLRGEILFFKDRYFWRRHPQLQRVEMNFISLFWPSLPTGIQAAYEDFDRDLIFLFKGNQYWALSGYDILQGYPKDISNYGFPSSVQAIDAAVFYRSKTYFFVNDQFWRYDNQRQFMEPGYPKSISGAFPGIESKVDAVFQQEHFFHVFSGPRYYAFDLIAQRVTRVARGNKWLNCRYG
T1 sequence (P08254 100-272 limits assumed): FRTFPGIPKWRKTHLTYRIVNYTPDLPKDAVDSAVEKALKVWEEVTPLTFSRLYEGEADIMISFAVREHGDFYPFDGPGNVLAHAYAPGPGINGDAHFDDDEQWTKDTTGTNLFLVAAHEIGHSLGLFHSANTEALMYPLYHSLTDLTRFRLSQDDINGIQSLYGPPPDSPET

IC50 [1] | IC50 [2] | IC50 [3] | Compound
250 to 20000 nM | < 250 nM | < 100 nM | N#CC1CCc2sc3nc(C(=O)NCc4ccc5c(c4)NC(=O)CO5)[nH]c(=O)c3c21 (centres unmarked) [Example 19]
250 to 20000 nM | 250 to 20000 nM | < 100 nM | O=C1COc2ccc(CNC(=O)c3nc4sc5c(c4c(=O)[nH]3)CCCS5(=O)=O)cc2N1 [Example 22]
250 to 20000 nM | 250 to 20000 nM | 100 to 20000 nM | Cc1snc2sc3c(=O)[nH]c(C(=O)NCc4ccc5c(c4)NC(=O)CO5)nc3c12 [Example 39/7]
250 to 20000 nM |  | < 100 nM | CCOC(=O)C1Cc2sc3nc(C(=O)NCc4ccc5c(c4)NC(=O)CO5)[nH]c(=O)c3c2C1 (centres unmarked) [2/210]
250 to 20000 nM |  |  | NC(=O)CC1CCCc2sc3nc(C(=O)NCc4ccc5c(c4)NC(=O)CO5)[nH]c(=O)c3c21 (centres unmarked) [2/240]
250 to 20000 nM | 250 to 20000 nM |  | O=C1COc2ccc(CNC(=O)c3nc4sc5c(c4c(=O)[nH]3)CN(C(=O)CC(F)(F)F)C5)cc2N1 [Example 42/1]
< 250 nM |  | < 100 nM | O=C1COc2ccc(CNC(=O)c3nc4sc5c(c4c(=O)[nH]3)CN(c3ncccn3)C5)cc2N1 [Example 43]
250 to 20000 nM |  | < 100 nM | O=C1COc2ccc(CNC(=O)c3nc4ccc5c(c4c(=O)[nH]3)CCC5)cc2N1 [2/245]
250 to 20000 nM | 250 to 20000 nM | < 100 nM | O=C(O)CC1CCCc2sc3nc(C(=O)NCc4ccc5c(c4)NC(=O)CO5)[nH]c(=O)c3c21 (centres unmarked) [Example 3]
250 to 20000 nM | < 250 nM | < 100 nM | CCOC(=O)C1CCc2sc3nc(C(=O)NCc4ccc5c(c4)CN(c4c(N)c(=O)c4=O)CC5)[nH]c(=O)c3c2C1 (centres unmarked) [2/209]
250 to 20000 nM | < 250 nM | < 100 nM | O=C1COc2ccc(CNC(=O)c3nc4sc5c(c4c(=O)[nH]3)CCOCC5)cc2N1 [2/211]
250 to 20000 nM | < 250 nM | < 100 nM | O=C1COc2ccc(CNC(=O)c3nc4sc5c(c4c(=O)[nH]3)CCC[S+]([O-])C5)cc2N1 (centres unmarked) [Example 26]
250 to 20000 nM | < 250 nM | < 100 nM | CC(C)(C)OC(=O)N1CCc2sc3nc(C(=O)NCc4ccc5c(c4)NC(=O)CO5)[nH]c(=O)c3c2CC1 [2/171]
250 to 20000 nM | < 250 nM | < 100 nM | O=C1COc2ccc(CNC(=O)C3NC(=O)c4c(sc5c4CCCN(CC4CCCCO4)C5=O)N3)cc2N1 (centres unmarked) [2/188]
250 to 20000 nM |  |  | CCOC(=O)CC1CCCc2sc3nc(C(=O)NCc4ccc5c(c4)NC(=O)CO5)[nH]c(=O)c3c21 (centres unmarked) [2/236]
250 to 20000 nM | < 250 nM | < 100 nM | O=C(O)CNC(=O)CC1CCCc2sc3nc(C(=O)NCc4ccc5c(c4)NC(=O)CO5)[nH]c(=O)c3c21 (centres unmarked) [Example 15]
250 to 20000 nM | < 250 nM | < 100 nM | CC(=O)N1CCc2c(sc3nc(C(=O)NCc4ccc5c(c4)CN(c4c(N)c(=O)c4=O)CC5)[nH]c(=O)c23)C1 [2/95]
 | 250 to 20000 nM | 100 to 20000 nM | Cc1cccc(CNC(=O)c2nc3sc4c(c3c(=O)[nH]2)CCC4)c1 [2/383]
 | < 250 nM | < 100 nM | CC(=O)N1CCc2c(sc3nc(C(=O)NCc4ccc5c(c4)NC(=O)CO5)[nH]c(=O)c23)C1 [2/94]
250 to 20000 nM |  | < 100 nM | COc1ccc2c(c1)CCc1sc3nc(C(=O)NCc4ccc5c(c4)CN(c4c(N)c(=O)c4=O)CC5)[nH]c(=O)c3c1-2 [2/108]
 | < 250 nM | < 100 nM | CC(C)(C)OC(=O)CNC(=O)C1CCc2sc3nc(C(=O)NCc4ccc5c(c4)NC(=O)CO5)[nH]c(=O)c3c21 (centres unmarked) [2/224]
 | 250 to 20000 nM | 100 to 20000 nM | O=C(NCc1ccc2c(c1)OCCO2)c1nc2sc3c(c2c(=O)[nH]1)CCC3 [2/428]
 | < 250 nM | < 100 nM | C#CCNC(=O)CC1CCCc2sc3nc(C(=O)NCc4ccc5c(c4)NC(=O)CO5)[nH]c(=O)c3c21 (centres unmarked) [2/251]
250 to 20000 nM | < 250 nM | < 100 nM | COc1ccc2c(c1)CCc1sc3nc(C(=O)NCc4ccc5c(c4)NC(=O)CO5)[nH]c(=O)c3c1-2 [2/107]
 | < 250 nM | < 100 nM | COC(=O)c1ccc(CNC(=O)C2CCc3sc4nc(C(=O)NCc5ccc6c(c5)NC(=O)CO6)[nH]c(=O)c4c32)cc1 (centres unmarked) [2/169]
 | < 250 nM | < 100 nM | Nc1c(N2CCc3ccc(CNC(=O)c4nc5sc6c(c5c(=O)[nH]4)CCC6)cc3C2)c(=O)c1=O [2/52]

IC50 [1] | IC50 [2] | IC50 [3] | Compound
 | < 250 nM | < 100 nM | Nc1c(N2CCc3ccc(CNC(=O)c4nc5sc6c(c5c(=O)[nH]4)CCCCC6)cc3C2)c(=O)c1=O [2/118]
 | < 250 nM | < 100 nM | O=C1COc2ccc(CNC(=O)c3nc4sc5c(c4c(=O)[nH]3)CCCCCC5)cc2N1 [2/125]
 | 250 to 20000 nM | < 100 nM | COC(=O)c1cccc(CNC(=O)c2nc3sc4c(c3c(=O)[nH]2)CCC4)c1 [2/316]
250 to 20000 nM |  | < 100 nM | CC(C)CNC(=O)C1Cc2sc3nc(C(=O)NCc4ccc5c(c4)NC(=O)CO5)[nH]c(=O)c3c2C1 (centres unmarked) [2/231]
 | 250 to 20000 nM | < 100 nM | O=C1COc2ccc(CNC(=O)c3nc4sc5c(c4c(=O)[nH]3)CNC5)cc2N1 [Example 41]
 | 250 to 20000 nM | 100 to 20000 nM | CS(=O)(=O)N1CCc2ccc(CNC(=O)c3nc4sc5c(c4c(=O)[nH]3)CCC5)cc2C1 [2/538]
250 to 20000 nM | < 250 nM | < 100 nM | O=C(O)CNC(=O)C1CCc2sc3nc(C(=O)NCc4ccc5c(c4)NC(=O)CO5)[nH]c(=O)c3c21 (centres unmarked) [15/2]
 | < 250 nM | < 100 nM | O=C1COc2ccc(CNC(=O)c3nc4sc5c(c4c(=O)[nH]3)C(C(=O)NCc3ccccc3)CC5)cc2N1 (centres unmarked) [2/167]
250 to 20000 nM | < 250 nM | < 100 nM | O=C1COc2ccc(CNC(=O)c3nc4sc5c(c4c(=O)[nH]3)CCCS(=O)(=O)C5)cc2N1 [Example 22/1]
 | < 250 nM | < 100 nM | O=C1COc2ccc(CNC(=O)c3nc4sc5c(c4c(=O)[nH]3)CCS5)cc2N1 [2/121]
 | 250 to 20000 nM | < 100 nM | O=C(NCc1ccc(F)cc1)c1nc2sc3c(c2c(=O)[nH]1)CCC3 [2/290]
 | < 250 nM | < 100 nM | CC(NC(=O)C1CCc2sc3nc(C(=O)NCc4ccc5c(c4)NC(=O)CO5)[nH]c(=O)c3c21)c1ccccc1 (centres unmarked) [2/175]
250 to 20000 nM |  |  | NC(=O)C1Cc2sc3nc(C(=O)NCc4ccc5c(c4)CN(c4c(N)c(=O)c4=O)CC5)[nH]c(=O)c3c2C1 (centres unmarked) [2/232]
< 250 nM |  | < 100 nM | O=C1COc2ccc(CNC(=O)c3nc4ccc5c(c4c(=O)[nH]3)OCO5)cc2N1 [Example 28]
 | 250 to 20000 nM | 100 to 20000 nM | Cc1cc(CNC(=O)c2nc3sc4c(c3c(=O)[nH]2)CCS(=O)(=O)C4)ccc1F [2/130]
 | < 250 nM | < 100 nM | Nc1c(N2CCc3ccc(CNC(=O)c4nc5sc6c(c5c(=O)[nH]4)CCS6)cc3C2)c(=O)c1=O [2/122]
< 250 nM | < 250 nM |  | Nc1c(N2CCc3ccc(CNC(=O)c4nc5sc6c(c5c(=O)[nH]4)CCS(=O)(=O)C6)cc3C2)c(=O)c1=O [2/104]
 | 250 to 20000 nM | 100 to 20000 nM | O=C1COc2ccc(CNC(=O)c3nc4cc5ccccc5cc4c(=O)[nH]3)cc2N1 [39/20]
250 to 20000 nM | 250 to 20000 nM | < 100 nM | CC1c2c(sc3nc(C(=O)NCc4ccc5c(c4)NC(=O)CO5)[nH]c(=O)c23)CS1(=O)=O (centres unmarked) [22/2]
 | < 250 nM | < 100 nM | Nc1c(N2CCc3ccc(CNC(=O)c4nc5sc6c(c5c(=O)[nH]4)CC(C(=O)O)C6)cc3C2)c(=O)c1=O (centres unmarked) [4/14]
250 to 20000 nM |  | < 100 nM | CCOC(=O)C1CCc2sc3nc(C(=O)NCc4ccc5c(c4)NC(=O)CO5)[nH]c(=O)c3c2C1 (centres unmarked) [2/208]
< 250 nM | < 250 nM | < 100 nM | O=C1COc2ccc(CNC(=O)c3nc4sc5c(c4c(=O)[nH]3)CCS(=O)(=O)C5)cc2N1 [2/103]
250 to 20000 nM | < 250 nM | < 100 nM | CC1SCc2sc3nc(C(=O)NCc4ccc5c(c4)CN(c4c(N)c(=O)c4=O)CC5)[nH]c(=O)c3c21 (centres unmarked) [2/132]
 | < 250 nM | < 100 nM | Cc1ccc(CNC(=O)C2CCc3sc4nc(C(=O)NCc5ccc6c(c5)NC(=O)CO6)[nH]c(=O)c4c32)cc1 (centres unmarked) [2/174]
 | < 250 nM | < 100 nM | O=C1COc2ccc(CNC(=O)c3nc4sc5c(c4c(=O)[nH]3)CCC5)cc2N1 [Example 1]
< 250 nM | < 250 nM | < 100 nM | CS(=O)(=O)N1Cc2sc3nc(C(=O)NCc4ccc5c(c4)NC(=O)CO5)[nH]c(=O)c3c2C1 [42/2]
